Our source for the IC50 and melting point values is patent publication US7459470B2, “N-oxide anthranylamide derivatives and their use as medicaments” (Schering AG, priority 2001, dated 2008).

Bounds are passed on as bounds.

Data set [1] concerns the target VEGFR II (KDR) (Homo sapiens, UniProt P35968). Put plainly: Inhibition of the KDR kinase activity (33P-ATP, poly-(Glu4Tyr) filter assay). Type of data set: biochemical. The note with it: phosphate incorporation into poly-(Glu4Tyr), 10 minutes at room temperature. On the procedure: • Stock Solutions • Stock solution A: 3 mmol of ATP in water, pH 7.0 (−70° C.) • Stock solution B: g-33P-ATP 1 mCi/100 μl • Stock solution C: poly-(Glu4 Tyr). 10 mg/ml in water Solution for Dilutions • Substrate solvent: 10 mmol of DTT, 10 mmol of manganese chloride, 100 mmol of magnesium chloride • Enzyme solution: 120 mmol of tris/HCl, pH 7.5, 10 μM of sodium vanadium oxide Sample Application 1 Inhibition of the KDR- and FLT-1 Kinase Activity in the Presence of the Compounds According to the Invention
In a microtiter plate (without protein binding) that tapers to a point, 10 μl of substrate mix (10 μl of volume of ATP stock solution A+25 μCi of g-33P-ATP (about 2.5 μl of stock solution B)+30 μl of poly-(Glu4Tyr) stock solution C+1.21 ml of substrate solvent), 10 μl of inhibitor solution (substances corresponding to the dilutions, 3% DMSO in substrate solvent as a control) and 10 μl of enzyme solution (11.25 μg of enzyme stock solution (KDR or FLT-1 kinase) are added at 4° C. in 1.25 ml of enzyme solution (dilute). It is thoroughly mixed and incubated for 10 minutes at room temperature. Then, 10 μl of stop solution (250 mmol of EDTA, pH 7.0) is added, mixed, and 10 μl of the solution is transferred to a P 81 phosphocellulose filter. Then, it is washed several times in 0.1 M phosphoric acid. The filter paper is dried, coated with Meltilex and measured in a microbeta counter.
The IC50 values are determined from the inhibitor concentration, which is necessary to inhibit the phosphate incorporation to 50% of the uninhibited incorporation after removal of the blank reading (EDTA-stopped reaction).

Data set [2] addresses T1, CYP1A2 (Homo sapiens, UniProt P05177).
T1 construct: host or cells: baculovirus/insect cells
T1 sequence (P05177 1-516): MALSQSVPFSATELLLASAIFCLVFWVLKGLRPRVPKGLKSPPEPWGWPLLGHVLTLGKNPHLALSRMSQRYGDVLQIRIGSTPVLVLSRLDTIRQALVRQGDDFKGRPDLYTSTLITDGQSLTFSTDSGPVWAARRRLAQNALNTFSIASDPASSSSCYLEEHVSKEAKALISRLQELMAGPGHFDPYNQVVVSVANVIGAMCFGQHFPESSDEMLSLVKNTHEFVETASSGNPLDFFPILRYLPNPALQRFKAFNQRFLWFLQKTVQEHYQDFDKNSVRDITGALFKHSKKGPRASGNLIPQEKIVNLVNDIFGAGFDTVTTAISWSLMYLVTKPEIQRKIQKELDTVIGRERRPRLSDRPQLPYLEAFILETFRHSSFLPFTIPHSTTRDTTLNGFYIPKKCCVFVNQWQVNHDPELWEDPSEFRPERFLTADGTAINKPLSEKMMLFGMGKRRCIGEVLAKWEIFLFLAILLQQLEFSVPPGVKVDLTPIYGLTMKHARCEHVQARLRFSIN
Put plainly: Cytochrome P450 inhibition, isoenzyme 1A2. Type of data set: in vitro ADME. The note with it: baculovirus/insect cell-expressed recombinant human CYP1A2, read-out: Inhibition of the Cytochrome P450 Isoenzymes IC50, 1A2. Here is the method: (§1) The Cytochrome P450 inhibition was performed according to the publication of Crespi et al. (Anal Biochem., 248, 188-190 (1997)) with use of baculovirus/insect cell-expressed, human Cytochrome P 450 isoenzymes (1A2, 2C9, 2C19, 2D6, 3A4).

The target in data set [3] is T2, CYP2C9 (Homo sapiens, UniProt P11712).
T2 construct: host or cells: baculovirus/insect cells
Description: Cytochrome P450 inhibition, isoenzyme 2C9. Type of data set: in vitro ADME. The settings on record: baculovirus/insect cell-expressed recombinant human CYP2C9, read-out: Inhibition of the Cytochrome P450 Isoenzymes IC50, 2C9. Here is the method: as §1

The target in data set [4] is T3, CYP2C19 (Homo sapiens, UniProt P33261).
T3 construct: host or cells: baculovirus/insect cells
Description: Cytochrome P450 inhibition, isoenzyme 2C19. Type of data set: in vitro ADME. The settings on record: baculovirus/insect cell-expressed recombinant human CYP2C19, read-out: Inhibition of the Cytochrome P450 Isoenzymes IC50, 2C19. Here is the method:
as §1

For data set [5], the target named is T4, CYP2D6 (Homo sapiens, UniProt P10635).
T4 construct: host or cells: baculovirus/insect cells
Description: Cytochrome P450 inhibition, isoenzyme 2D6. Type of data set: in vitro ADME. The note with it: baculovirus/insect cell-expressed recombinant human CYP2D6, read-out: Inhibition of the Cytochrome P450 Isoenzymes IC50, 2D6. Here is the method: as §1

Data set [6] has as its target T5, CYP3A4 (Homo sapiens, UniProt P08684).
T5 construct: host or cells: baculovirus/insect cells
Put plainly: Cytochrome P450 inhibition, isoenzyme 3A4. Type of data set: in vitro ADME. The settings on record: baculovirus/insect cell-expressed recombinant human CYP3A4, read-out: Inhibition of the Cytochrome P450 Isoenzymes IC50, 3A4. On the procedure:
as §1

Chain of VEGFR II (KDR) (P35968 20-1356, species assumed): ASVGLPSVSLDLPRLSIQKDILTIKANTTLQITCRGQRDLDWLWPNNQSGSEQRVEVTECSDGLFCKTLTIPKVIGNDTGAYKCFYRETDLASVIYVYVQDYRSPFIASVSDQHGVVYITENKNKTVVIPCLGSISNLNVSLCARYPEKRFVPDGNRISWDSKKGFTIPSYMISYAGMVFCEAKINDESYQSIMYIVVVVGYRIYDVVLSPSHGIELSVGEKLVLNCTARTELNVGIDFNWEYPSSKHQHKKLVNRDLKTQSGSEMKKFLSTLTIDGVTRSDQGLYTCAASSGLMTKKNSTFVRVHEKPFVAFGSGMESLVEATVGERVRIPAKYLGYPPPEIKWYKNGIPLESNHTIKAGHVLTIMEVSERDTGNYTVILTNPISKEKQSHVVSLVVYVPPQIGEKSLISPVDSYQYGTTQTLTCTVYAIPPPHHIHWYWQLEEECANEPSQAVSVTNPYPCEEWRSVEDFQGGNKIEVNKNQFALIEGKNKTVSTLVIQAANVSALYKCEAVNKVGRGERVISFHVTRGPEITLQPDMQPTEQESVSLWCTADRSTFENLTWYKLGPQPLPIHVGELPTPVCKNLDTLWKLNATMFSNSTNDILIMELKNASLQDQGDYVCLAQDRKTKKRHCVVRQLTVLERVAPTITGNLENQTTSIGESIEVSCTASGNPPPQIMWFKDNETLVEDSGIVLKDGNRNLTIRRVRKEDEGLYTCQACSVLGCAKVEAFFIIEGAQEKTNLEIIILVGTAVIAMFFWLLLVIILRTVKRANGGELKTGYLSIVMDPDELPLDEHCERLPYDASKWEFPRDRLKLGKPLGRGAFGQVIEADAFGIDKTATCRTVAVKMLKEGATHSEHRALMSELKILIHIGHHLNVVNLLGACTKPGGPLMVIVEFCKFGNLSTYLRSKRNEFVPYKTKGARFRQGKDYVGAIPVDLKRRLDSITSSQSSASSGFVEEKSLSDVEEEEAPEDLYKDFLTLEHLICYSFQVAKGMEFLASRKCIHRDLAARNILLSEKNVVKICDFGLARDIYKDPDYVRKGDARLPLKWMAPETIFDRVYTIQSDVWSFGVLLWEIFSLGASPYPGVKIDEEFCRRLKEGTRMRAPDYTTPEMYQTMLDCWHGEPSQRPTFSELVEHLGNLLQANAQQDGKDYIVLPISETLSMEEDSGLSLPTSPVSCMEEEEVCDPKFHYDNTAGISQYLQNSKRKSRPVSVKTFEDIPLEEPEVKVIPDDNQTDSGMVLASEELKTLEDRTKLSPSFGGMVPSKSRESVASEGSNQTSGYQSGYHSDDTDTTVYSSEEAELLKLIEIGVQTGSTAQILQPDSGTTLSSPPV
T3 sequence (P33261 whole entry): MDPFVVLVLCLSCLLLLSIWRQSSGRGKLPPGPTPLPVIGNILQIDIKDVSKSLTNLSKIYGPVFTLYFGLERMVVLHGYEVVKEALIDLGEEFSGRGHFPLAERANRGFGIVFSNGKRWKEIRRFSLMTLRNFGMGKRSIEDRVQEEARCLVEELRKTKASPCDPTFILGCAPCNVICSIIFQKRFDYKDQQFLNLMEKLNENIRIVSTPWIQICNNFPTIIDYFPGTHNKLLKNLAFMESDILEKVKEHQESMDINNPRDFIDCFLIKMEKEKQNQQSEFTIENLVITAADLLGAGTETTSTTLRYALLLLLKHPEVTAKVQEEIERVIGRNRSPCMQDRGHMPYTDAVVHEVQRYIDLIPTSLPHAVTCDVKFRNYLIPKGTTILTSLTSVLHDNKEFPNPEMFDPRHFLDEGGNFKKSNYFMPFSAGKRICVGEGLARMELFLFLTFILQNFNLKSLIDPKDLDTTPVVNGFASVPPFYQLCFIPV
T4 sequence (P10635 whole entry): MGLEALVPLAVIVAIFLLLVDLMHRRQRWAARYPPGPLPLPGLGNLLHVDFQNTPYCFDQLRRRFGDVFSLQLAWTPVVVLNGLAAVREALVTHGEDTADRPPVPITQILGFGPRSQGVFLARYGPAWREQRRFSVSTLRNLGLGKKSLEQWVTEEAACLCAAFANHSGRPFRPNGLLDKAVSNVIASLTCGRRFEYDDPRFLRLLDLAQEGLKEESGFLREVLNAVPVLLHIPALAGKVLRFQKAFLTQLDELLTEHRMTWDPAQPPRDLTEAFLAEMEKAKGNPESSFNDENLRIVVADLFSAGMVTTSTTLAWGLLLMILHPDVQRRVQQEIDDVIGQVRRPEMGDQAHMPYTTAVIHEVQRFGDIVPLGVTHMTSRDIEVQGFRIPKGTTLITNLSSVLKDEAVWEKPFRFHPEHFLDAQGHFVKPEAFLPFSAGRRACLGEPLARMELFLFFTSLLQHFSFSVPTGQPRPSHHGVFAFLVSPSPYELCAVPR
T2 sequence (P11712 whole entry): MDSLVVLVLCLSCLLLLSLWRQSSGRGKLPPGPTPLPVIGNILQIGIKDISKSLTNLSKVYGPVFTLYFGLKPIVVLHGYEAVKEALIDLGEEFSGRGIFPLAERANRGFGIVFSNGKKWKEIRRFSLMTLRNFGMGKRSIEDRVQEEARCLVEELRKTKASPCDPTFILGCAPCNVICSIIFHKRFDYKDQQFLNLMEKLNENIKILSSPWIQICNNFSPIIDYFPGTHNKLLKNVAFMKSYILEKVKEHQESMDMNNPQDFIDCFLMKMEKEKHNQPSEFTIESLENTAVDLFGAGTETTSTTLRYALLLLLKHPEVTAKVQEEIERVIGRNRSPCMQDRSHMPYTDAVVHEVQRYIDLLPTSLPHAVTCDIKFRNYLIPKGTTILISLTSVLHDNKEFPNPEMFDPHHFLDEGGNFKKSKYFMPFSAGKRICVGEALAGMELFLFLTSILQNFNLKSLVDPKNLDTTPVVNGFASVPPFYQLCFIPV
T5 sequence (P08684 whole entry): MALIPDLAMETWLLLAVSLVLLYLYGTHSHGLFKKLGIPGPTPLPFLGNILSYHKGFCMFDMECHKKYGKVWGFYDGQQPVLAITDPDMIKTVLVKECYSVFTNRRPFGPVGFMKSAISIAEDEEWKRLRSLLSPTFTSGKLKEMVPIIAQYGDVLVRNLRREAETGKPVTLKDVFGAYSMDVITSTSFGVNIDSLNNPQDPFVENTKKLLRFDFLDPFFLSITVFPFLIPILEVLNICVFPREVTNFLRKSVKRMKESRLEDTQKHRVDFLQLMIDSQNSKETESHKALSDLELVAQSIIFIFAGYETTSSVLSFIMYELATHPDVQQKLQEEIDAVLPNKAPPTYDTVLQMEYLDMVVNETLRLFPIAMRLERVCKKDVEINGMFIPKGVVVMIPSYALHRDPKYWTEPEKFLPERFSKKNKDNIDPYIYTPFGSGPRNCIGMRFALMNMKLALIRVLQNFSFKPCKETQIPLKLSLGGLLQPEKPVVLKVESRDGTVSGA

As a reminder, the IC50 is the concentration at which inhibition is half-maximal. As for `O=C(Nc1cc2ccccc2cn1)c1ccccc1NCc1cc[n+]([O-])cc1` [Example 1, N-(Isoquinolin-3-yl)-2-(4-pyridylmethyl)aminobenzoic acid amide-N-oxide], the IC50 in data set [1] was 0.03 µM; in data set [2], more than 30 µM; in data set [3], 5.2 µM; in data set [4], 3.6 µM; in data set [5], more than 30 µM; in data set [6], more than 30 µM.
What is called melting point is the temperature, or range, at which the solid turns liquid. `O=C(Nc1cc2ccccc2cn1)c1ccccc1NCc1ccc[n+]([O-])c1` [Example 2]: the melting point is 191.9 °C. For the same molecule, the IC50 in data set [1] came out at 0.2 µM.
The molecule `O=C(Nc1cccc(C(F)(F)F)c1)c1ccccc1NCc1cc[n+]([O-])cc1` [Example 4] registered a melting point of 181 to 184 °C. Besides, in data set [1], inhibition was half-maximal at 0.05 µM (IC50).
For `O=C(Nc1cc2ccccc2cn1)c1cccnc1NCc1cc[n+]([O-])cc1` [Example 7], in that order: 196.2 °C and 0.05 µM.
`O=C(Nc1cccc(C(F)(F)F)c1)c1cccnc1NCc1cc[n+]([O-])cc1` [Example 8]: the IC50 in data set [1] is 0.05 µM.
